As a reminder, the IC50 is the concentration needed to halve the response being measured.

Experiment [1] deals with H1975 cells. Kind of experiment: Colony formation assay. The note with it: treated 48 h, additional ten days without compound. In kind it is cell-based, human. Here is the method:
Cells (500 cells/well) were seeded and cultured overnight. The compounds were treated for 48 h, the cells were washed with phosphate buffered saline (PBS), and continued incubation. Culture medium was replaced every three days for ten days. Cells were fixed with 4% paraformaldehyde solution and stained with 0.1% crystal violet.

The target of experiment [2] is T1, Recombinant human aurora A protein (Homo sapiens, UniProt O14965).
T1 construct: purchased Abcam ab271368
T1 sequence (O14965 1-403): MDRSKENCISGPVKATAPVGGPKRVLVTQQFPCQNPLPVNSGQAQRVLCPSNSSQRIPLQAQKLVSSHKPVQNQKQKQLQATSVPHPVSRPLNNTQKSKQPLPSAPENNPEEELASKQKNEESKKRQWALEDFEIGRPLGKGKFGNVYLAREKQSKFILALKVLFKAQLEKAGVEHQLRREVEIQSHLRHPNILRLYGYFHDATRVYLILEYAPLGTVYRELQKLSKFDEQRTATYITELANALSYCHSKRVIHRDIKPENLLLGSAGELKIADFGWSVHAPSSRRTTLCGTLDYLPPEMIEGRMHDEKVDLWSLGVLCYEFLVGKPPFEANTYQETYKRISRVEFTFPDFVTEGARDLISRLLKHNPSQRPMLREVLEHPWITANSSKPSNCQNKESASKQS
Kind of experiment: Cell-free aurora kinase assay (ADP-Glo). In kind it is biochemical. As to conditions: myelin basic protein substrate, read-out: Aurora Kinase A Inhibition (IC50). The method, then: (§1) Aurora A kinase activity was measured using an ADP-Glo™ Kinase assay kit (Promega, USA, Catalog No. # PAV9101). Recombinant human aurora A protein (Active) (ab271368) and Recombinant human aurora B protein (Active) (ab51435) were purchased from Abcam (United States, Boston, MA). […] The ADP-Glo ^TM reagents and kinase detection buffer and substrates were prepared according to the ADP-Glo™ Kinase Assay kit instructions. Luminescence was measured using a microplate reader.

The target in experiment [3] is T2, Recombinant human aurora B protein (Homo sapiens, UniProt Q96GD4).
T2 construct: purchased Abcam ab51435
Kind of experiment: Cell-free aurora kinase assay (ADP-Glo). The note with it: myelin basic protein substrate, read-out: Aurora Kinase B Inhibition (IC50). In kind it is biochemical. The method, then:
as §1
For orientation: ADP-Glo turns the ADP formed in a reaction into a luminescent signal.

Experiment [4] relates to p-aurora kinase A (T288). In words: Western blotting of phospho-aurora kinase A in H1975 cells. In kind it is cell-based, human. The note with it: 24 h. From the text:
(§2) The cells were collected and lysed in sample loading buffer (Bio-Rad, Hercules, CA, USA). Total protein concentrations were quantified using a BCA Protein Assay Kit (Thermo Fisher Scientific, Waltham, MA, USA). Quantified proteins were loaded onto SDS-polyacrylamide gels and separated by molecular weight via electrophoresis (PAGE). Then, proteins were transferred to polyvinylidene fluoride membranes (Millipore, Bedford, MA, USA); 5% BSA in Tris-buffered saline containing 0.1% Tween-20 (TBST) was used for blocking. The membranes were blocked for 30 min at room temperature with mild shaking, then incubated with antibodies diluted in 2.5% BSA in TBST overnight at 4 °C with mild shaking. Following secondary antibody incubation and washing with TBST, the chemiluminescence signals were detected using the WEST-Queen detection system (iNtRON Biotechnology, Seongnam, Korea) and LAS-4000 (Fuji Film Corp., Tokyo, Japan).
(A western blot detects proteins with antibodies after separation by electrophoresis.)

For experiment [5], the system named is H1975 cells. Kind of experiment: Cell cycle analysis (PI staining, flow cytometry). In kind it is cell-based, human. As to conditions: for Sub-G1 cell population: 72 h (Figure 5A). Here is the method: Cells were seeded and starved in serum-free medium overnight. After starvation, the cells were treated with compounds for the indicated times. After incubation, cells were harvested, washed with PBS, and fixed with 70% ethanol in PBS overnight at −20 °C. The fixed cells were washed with PBS, resuspended in 100 µg/mL of RNase A for 30 min at room temperature, and stained with 50 µg/mL PI. Fluorescence intensity was analyzed using a FACSCalibur flow cytometer (BD Biosciences, San Jose, CA, USA) and BD CellQuest^TM Pro version 6.0 software (BD Biosciences, San Jose, CA, USA).

For experiment [6], the system named is H1975 cells. In words: Annexin V-FITC/PI double staining (flow cytometry). In kind it is cell-based, human. The method, then: Cells were treated with samples for 72 h and stained with an Annexin V-FITC apoptosis detection kit (BD Biosciences, San Jose, CA, USA) according to the manufacturer’s instructions. Briefly, cells were collected after 72 h treatment, washed with PBS, resuspended in 1× binding buffer, and stained with Annexin V-FITC and PI in the dark for 15 min. After incubation, the cells were diluted with 1× binding buffer and analyzed using an FACSCalibur flow cytometer (BD Biosciences, San Jose, CA, USA) and BD CellQuest^TM Pro version 6.0 software (BD Biosciences, San Jose, CA, USA).

Experiment [7] concerns cdc25C, cdc2, and p21 proteins. In words: Western blotting of cell cycle regulators in H1975 cells. In kind it is cell-based, human. As to conditions: H1975, 24 h.
Source text: as §2

For experiment [8], the system named is cleaved PARP, PARP, cleaved caspase-8, and caspase-8 proteins. In words: Western blotting of apoptosis-related proteins in H1975 cells. In kind it is cell-based, human. The note with it: H1975, 72 h, concentration-dependent.
Source text: as §2

Experiment [9] relates to HCC827 cells. Kind of experiment: SRB cell proliferation assay. The note with it: Homo sapiens, HCC827, 72 h, read-out: IC50 value, HCC827.
Procedure: (§3) The human non-small lung cancer cell lines A549, NCI-H1975, NCI-H1299, and NCI-H1993 were purchased from the American Type Culture Collection (Manassas, VA, USA). The human non-small cell lung cancer cell lines HCC827, PC9, HCC827-gef and PC9-gef were a kind gift from Dr. Jae Cheol Lee and Dr. Jin Kyung Rho (Asan Medical Center, Seoul, Korea). […] Cells were incubated at 37 °C in a humidified atmosphere with 5% CO2.
(§4) Cell viability was measured using the SRB method as described previously [58]. Briefly, cells were seeded with different concentrations of compounds and incubated for 72 h. After 72 h incubation, cells were fixed with 10% TCA for 30 min at 4 °C and stained with 0.4% (w/v) SRB in 1% acetic acid for 2 h at room temperature.
For experiment [10], the system named is PC9 cells. In words: SRB cell proliferation assay. The note with it: Homo sapiens, PC-9, 72 h, read-out: IC50 value, PC9.
Procedure: as §3, §4
For experiment [11], the system named is HCC827-gef cells. In words: SRB cell proliferation assay. As to conditions: Homo sapiens, 72 h, read-out: IC50 value, HCC827-gef.
Procedure: as §3, §4
The test system of experiment [12] is PC9-gef cells. In words: SRB cell proliferation assay. As to conditions: Homo sapiens, 72 h, read-out: IC50 value, PC9-gef.
Procedure: as §3, §4
Experiment [13] relates to H1975 cells. In words: SRB cell proliferation assay. As to conditions: Homo sapiens, NCI-H1975, 72 h, read-out: IC50 value, H1975.
Procedure: as §3, §4
Experiment [14] concerns H1299 cells. Kind of experiment: SRB cell proliferation assay. The note with it: Homo sapiens, NCI-H1299, 72 h, read-out: IC50 value, H1299.
Procedure: as §3, §4
Experiment [15] has as its system H1993 cells. In words: SRB cell proliferation assay. The note with it: Homo sapiens, NCI-H1993, 72 h, read-out: IC50 value, H1993.
Procedure: as §3, §4
Experiment [16] deals with A549 cells. Kind of experiment: SRB cell proliferation assay. As to conditions: Homo sapiens, A549, 72 h, read-out: IC50 value, A549.
Procedure: as §3, §4

T2 sequence (Q96GD4 whole entry): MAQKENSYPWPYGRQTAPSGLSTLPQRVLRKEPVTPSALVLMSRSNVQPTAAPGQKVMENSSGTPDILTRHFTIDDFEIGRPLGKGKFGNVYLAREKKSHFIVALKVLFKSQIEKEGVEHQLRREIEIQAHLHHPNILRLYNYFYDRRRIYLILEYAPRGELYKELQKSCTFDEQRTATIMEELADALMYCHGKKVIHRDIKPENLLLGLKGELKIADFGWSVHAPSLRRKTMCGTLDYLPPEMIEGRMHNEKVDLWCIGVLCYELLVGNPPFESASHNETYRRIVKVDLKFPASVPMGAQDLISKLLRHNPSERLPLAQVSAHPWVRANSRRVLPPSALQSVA

With `CCOC(=O)c1cn2cc(-c3ccc4ncn(Cc5ncccn5)c(=O)c4c3)ccc2n1` [BIQO-19, ethyl 6-(4-oxo-3-(pyrimidin-2-ylmethyl)-3,4-dihydroquinazolin-6-yl)imidazo [1,2-a]pyridine-2-carboxylate], in experiment [1], the “colony formation in H1975 cells” value was “significant inhibition of colony formation”. Further, the IC50 in experiment [2] was 0.0685 ± 0.00645 µM; in experiment [3], 0.581 ± 0.0138 µM; in experiment [9], 4.84 ± 0.17 µM; in experiment [10], 16.4 ± 1.44 µM; in [11] it was 4.43 ± 0.35 µM; in experiment [12], 9.21 ± 0.51 µM. The IC50 in experiment [13] amounted to 4.76 ± 0.17 µM; in experiment [14], 5.3 ± 0.06 µM; in experiment [15] it was 5.5 ± 1.69 µM; in [16] it was 3.63 ± 0.28 µM. Moreover, the “levels of p-aurora kinase A (T288) expression” value in experiment [4] is given as “suppressed by BIQO-19 treatment in a concentration-dependent manner”. The Sub-G1 cell population was 2.54% in experiment [5] (H1975, 1 μM); 2.60% in experiment [5] (H1975, 2 μM); 15.5% in [5] (H1975, 4 μM). For the same molecule, the G2/M cell population in [5] (H1975, 4 μM, 12 h (Figure 4A)) was determined as 35.3%; in experiment [5] (H1975, 4 μM, 24 h (Figure 4A)) it was 52.0%. Moreover, the “total cell deaths (early apoptosis + late apoptosis + necrosis)” value in experiment [6] (H1975, 4 μM, 72 h (Figure 5B,C)) is recorded as 26.67%. In experiment [6] (H1975, 72 h, single vs combination treatment (Figure 6C)), the early apoptosis fraction is 17.6%. Moreover, the total cell death in experiment [6] (H1975, 72 h, single vs combination treatment (Figure 6D)) worked out at 27.1%. Moreover, in experiment [7], the “cdc25C and cdc2 expression” value is “effectively downregulated”. Besides, the p21 expression entry in experiment [7] is given as “upregulated”. In addition, the “expression levels of PARP and caspase-8 (inactivated forms)” value in [8] is “downregulated”. Further, in experiment [8], the “expression levels of cleaved PARP and cleaved caspase-8 (activated forms)” value is “upregulated”.

Regarding `CCC(=O)Nc1nc2ccc(-c3ccc4ncn(CCc5cc6ccccc6[nH]5)c(=O)c4c3)cc2[nH]1` [FL-4, reference compound], the IC50 was found to be 4.14 ± 0.64 µM in experiment [9]; 15 ± 1.41 µM in [10]; 6.4 ± 0.6 µM in [11]; 6.75 ± 0.71 µM in experiment [12]; 2.81 ± 0.43 µM in experiment [13]; 5.54 ± 0.85 µM in experiment [14]. Also, the figures for the IC50 in [15] and in [16] were 4.57 ± 0.29 µM and 6.11 ± 1.14 µM, respectively.

For the origin of these results see paper PMC9228987, “Antiproliferative Activity of a New Quinazolin-4(3H)-One Derivative via Targeting Aurora Kinase A in Non-Small Cell Lung Cancer” (Pharmaceuticals, 2022).
